According to patent publication US20180185312A1, “METHOD AND COMPOSITION FOR PREVENTING OR TREATING IMMUNE ALLERGIC AIRWAY DISEASE” (Development Center for Biotechnology, priority 2016, published 2018):

Tests used:
IL-6 = test: Cytokines in nasal irrigation solution, allergic rhinitis animal model: IL-6; type: in vivo; settings: BALB/c mice, in comparison with the disease group, increasing amount of SAC
Experimental: (§1) 3. All animals were sacrificed at the end of the 4th week after being given the tested material, their nasal cavities were rinsed 3 times with 1 ml of physiological saline solution, then nasal irrigation solution was collected, centrifuged at 1000 rpm for 5 minutes at 4° C. to collect the supernatant solution, then store at −80° C. for preservation.

[1] = Conversion of effective amount from mouse to human by conversion factor W; settings: converted from the mouse amount with conversion factor W 0.11
Experimental: For example, when being administered into a mouse, an effective amount of SAC is at least approximately 25 mg/kg; more preferably, an effective amount of SAC is approximately from 25 mg/kg to 100 mg/kg. When being administered into a person, an effective amount of SAC is at least approximately 2.75 mg/kg; more preferably, an effective amount is approximately from 2.75 mg/kg to 11 mg/kg. The conversion of an effective amount from animal to animal can be easily calculated by those skilled in the art based on known knowledge. For example, when an effective amount per kg for animal A is known and an effective amount per kg for animal B is to be calculated, look up table 1 first to find the conversion factor (W), then calculate as follows: An effective amount for animal B (mg/kg)=W×an effective amount for animal A (mg/kg) For example, in one of the examples of this disclosure, an effective amount of SAC being administered into a mouse was 25 mg/kg, which needs to be converted into an effective amount for a human. Animal A is a mouse and animal B is a human, the crossing point which is the conversion factor W is 0.11, therefore an effective amount for a human is 0.11×25 mg/kg=2.75 mg/kg. [table]

IL-9 = test: Cytokines in nasal irrigation solution, allergic rhinitis animal model: IL-9; type: in vivo; settings: BALB/c mice, in comparison with the disease group, increasing amount of SAC
Experimental: as §1

allergic rhinitis = test: Allergic rhinitis animal model: frequency of sneezing and nasal rubbing; type: in vivo, Mice (BALB/c)
Text: Drug Efficacy Evaluation for Allergic Rhinitis in Animals 1. Species: Mice. 2. Strain: BALB/c. 8. Number of animals: The animals were divided into 5 groups, 4 to 5 animals per group, a total of 24 animals. [table] 1. The frequency of sneezing and nasal rubbing of the mice was observed once per week.

[2] = BALB/c mice, SAC 25, 50, 100 mpk p.o. twice per day, in comparison to the disease group

In the case of `C=CCSC[C@H](N)C(=O)O` [SAC, S-allyl-L-Cysteine], the “level of IL-6 in nasal irrigation solution” value (IL-6) is reported as “decreased”, the “effective amount for a human” value [1] is reported as 2.75 mg/kg and the “level of IL-9 in nasal irrigation solution” value (IL-9) is reported as “decreased”. The “frequency of nasal rubbing” value (allergic rhinitis; [2]) was “tended to decline”, the frequency of sneezing (allergic rhinitis; [2]) was “tended to decline” and the “effective amount administered into a mouse” value (allergic rhinitis; mouse, in one of the examples) was 25 mg/kg.
